As a reminder, the GI50 is the concentration that inhibits growth by half.

Some test systems named below: OVCAR-4; SNB-19; NCI-H460; Hs-578T; OVCAR-8; TK-10; A498; UO-31; UACC-62; U-251; SF-539; OVCAR-5; SN12C; NCI/ADR-RES; DU-145; HOP-62; UACC-257; HT-29; HL-60.
Common to all, as to assay: DTP human tumour cell line panel, 48 h

Structures can show the parent of a compound that is named as a salt.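 Tested at 5 concentrations; 48 h exposure; 96-well plates; endpoints linearly interpolated, else capped at highest concentration. GI50 marks 50% less growth.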 Calls of active or inactive are those of the source. Cut-off read from the data, not from the text of the source: active = GI50 up to about 1.1 µM and inactive = higher.

Regarding `C/C(=N\c1ccc(N(C)C)cc1)c1ccccc1`, the GI50 is 25.1 µM (inactive) in the experiment with OVCAR-4; 86.3 µM (inactive) in the experiment with SNB-19; 81.1 µM (inactive) in the experiment with NCI-H460; 22.1 µM (inactive) in the experiment on Hs-578T; 35.4 µM (inactive) in the experiment on OVCAR-8; 20.8 µM (inactive) with TK-10. Also, the GI50 in the experiment with A498 is > 100 µM (inactive); in the experiment with UO-31, 17.8 µM (inactive); in the experiment on UACC-62 it was 17.1 µM (inactive); in the experiment with U-251, 22.5 µM (inactive); with SF-539, 56 µM (inactive); in the experiment with OVCAR-5 it was > 100 µM (inactive). Also, the GI50 in the experiment on SN12C is 17.4 µM (inactive); with NCI/ADR-RES, 27 µM (inactive); with DU-145, 34.9 µM (inactive); with HOP-62, 96.2 µM (inactive); with UACC-257, > 10 µM (inactive); in the experiment with HT-29, 30.5 µM (inactive). The GI50 with HL-60 is 16.4 µM (inactive).

Turning to `CC[C@@H]1C(=O)OC[C@@H]1Cc1cncn1C` [PILOCARPINE HYDROCHLORIDE], the GI50 in the experiment on OVCAR-4, in the experiment on SNB-19, with NCI-H460, with Hs-578T, in the experiment on OVCAR-8 and in the experiment with TK-10 was > 100 µM (inactive) throughout. Moreover, the GI50 in the experiment on A498, in the experiment on UO-31, in the experiment on UACC-62, in the experiment with U-251, in the experiment on SF-539 and in the experiment on OVCAR-5 was > 100 µM (inactive) throughout. The GI50 in the experiment with SN12C, in the experiment on NCI/ADR-RES, in the experiment with DU-145, in the experiment on HOP-62, in the experiment with UACC-257 and in the experiment with HT-29 was > 100 µM (inactive) in each case. The GI50 in the experiment with HL-60 is > 100 µM (inactive).

As to `CCOC(=O)c1c(NC(=O)c2cccs2)sc2c1CCCC2`, the GI50 with OVCAR-4 is 60.3 µM (inactive); in the experiment on SNB-19, 30.1 µM (inactive); with NCI-H460, > 88.9 µM (inactive); in the experiment on Hs-578T, 27.6 µM (inactive); in the experiment with OVCAR-8 it was 61.9 µM (inactive); in the experiment with TK-10 it was 45.8 µM (inactive). Further, the GI50 with A498 is 24.3 µM (inactive); in the experiment on UO-31 it was > 63.1 µM (inactive); in the experiment on UACC-62, 52.1 µM (inactive); in the experiment with U-251, 28.1 µM (inactive); with SF-539, 24.4 µM (inactive); with OVCAR-5, 35 µM (inactive). The GI50 was > 90.4 µM (inactive) in the experiment with SN12C; > 100 µM (inactive) in the experiment with NCI/ADR-RES; > 80.4 µM (inactive) in the experiment with DU-145; 21.8 µM (inactive) in the experiment on HOP-62; > 100 µM (inactive) in the experiment on UACC-257; > 100 µM (inactive) in the experiment with HT-29. Also, the GI50 in the experiment on HL-60 is > 100 µM (inactive).

Take `CC(SCc1ccccc1)C(=O)O` (configuration not stated): the GI50 in the experiment on OVCAR-4, in the experiment with SNB-19, with NCI-H460, with Hs-578T, with OVCAR-8 and in the experiment with TK-10 was > 100 µM (inactive) in each case. Moreover, the GI50 in the experiment with A498, in the experiment on UO-31, in the experiment on UACC-62, in the experiment on U-251, with SF-539 and with OVCAR-5 was > 100 µM (inactive) in each case. Further, the GI50 in the experiment with SN12C, in the experiment with NCI/ADR-RES, with DU-145, with HOP-62, in the experiment with UACC-257 and in the experiment with HT-29 was > 100 µM (inactive) each time. Further, in the experiment on HL-60, the GI50 was > 100 µM (inactive).

On to `CN(C)CCCN=C(N)N`, for which the GI50 with OVCAR-4, in the experiment with SNB-19, with NCI-H460, with Hs-578T, in the experiment on OVCAR-8 and in the experiment on TK-10 was > 100 µM (inactive) in each case. Moreover, the GI50 with A498, with UO-31, in the experiment on UACC-62, in the experiment on U-251, with SF-539 and with OVCAR-5 was > 100 µM (inactive) each time. In addition, the GI50 in the experiment on SN12C, in the experiment on NCI/ADR-RES, in the experiment on DU-145, in the experiment with HOP-62, with UACC-257 and with HT-29 was > 100 µM (inactive) in each case. Besides, in the experiment on HL-60, the GI50 is 85.3 µM (inactive).

For `BrCCC[P+](c1ccccc1)(c1ccccc1)c1ccccc1`, the GI50 in the experiment on OVCAR-4 was 31.3 µM (inactive); in the experiment with SNB-19, 16.6 µM (inactive); with NCI-H460, 15.2 µM (inactive); in the experiment on Hs-578T, 15.5 µM (inactive); in the experiment on OVCAR-8, 12.4 µM (inactive); in the experiment with TK-10 it was 80.9 µM (inactive). Also, the GI50 in the experiment on A498 was 49.5 µM (inactive); in the experiment on UO-31 it was > 100 µM (inactive); with UACC-62 it was 14 µM (inactive); with U-251 it was 6.32 µM (inactive); with SF-539, 8.47 µM (inactive); in the experiment with OVCAR-5, 56.1 µM (inactive). For the same compound, the GI50 was 23.1 µM (inactive) in the experiment with SN12C; > 100 µM (inactive) with NCI/ADR-RES; 32.7 µM (inactive) in the experiment on DU-145; 11.3 µM (inactive) in the experiment with HOP-62; 2.71 µM (inactive) in the experiment with UACC-257; 15.9 µM (inactive) with HT-29. In addition, the GI50 in the experiment with HL-60 was 1.18 µM (inactive).

As for `C1CC2CN(CCCN3CCOCC3)C(C1)O2` (configuration not stated), the GI50 in the experiment on OVCAR-4, in the experiment on SNB-19, in the experiment with NCI-H460, in the experiment on Hs-578T, in the experiment with OVCAR-8 and in the experiment with TK-10 was > 100 µM (inactive) in each case. The GI50 in the experiment with A498, with UO-31, with UACC-62, in the experiment on U-251, in the experiment with SF-539 and in the experiment on OVCAR-5 was > 100 µM (inactive) in each case. Besides, the GI50 in the experiment on SN12C, in the experiment with NCI/ADR-RES, with DU-145, in the experiment on HOP-62, in the experiment on UACC-257 and in the experiment with HT-29 was > 100 µM (inactive) each time. Also, the GI50 in the experiment with HL-60 is > 100 µM (inactive).

Regarding `O=c1c2cc(I)ccc2nc(Sc2ncccc2[N+](=O)[O-])n1Cc1ccccc1`, the GI50 in the experiment on OVCAR-4 was 33.3 µM (inactive); with SNB-19, 45.9 µM (inactive); in the experiment on NCI-H460, 29.4 µM (inactive); in the experiment on Hs-578T, 16.7 µM (inactive); with OVCAR-8, 31 µM (inactive); in the experiment on TK-10 it was 37.2 µM (inactive). The GI50 is 24.6 µM (inactive) in the experiment with A498; 14.3 µM (inactive) in the experiment on UO-31; 21.2 µM (inactive) with UACC-62; 35.2 µM (inactive) in the experiment with U-251; 32.2 µM (inactive) in the experiment with SF-539; > 100 µM (inactive) with OVCAR-5. In addition, the GI50 in the experiment on SN12C is 20.6 µM (inactive); in the experiment with NCI/ADR-RES, 17.2 µM (inactive); in the experiment on DU-145, 22.5 µM (inactive); in the experiment on HOP-62 it was 70 µM (inactive); with UACC-257, 23.2 µM (inactive); in the experiment with HT-29, 34.2 µM (inactive). In addition, the GI50 in the experiment on HL-60 is 0.122 µM (active).

Regarding `NS(=O)(=O)c1ccc(NCc2cnc3ccccc3n2)cc1`, the GI50 in the experiment with OVCAR-4, in the experiment with SNB-19, in the experiment with NCI-H460, in the experiment with Hs-578T, in the experiment with OVCAR-8 and in the experiment on TK-10 was > 100 µM (inactive) each time. Also, the GI50 with A498, with UO-31, with UACC-62, in the experiment with U-251, in the experiment with SF-539 and in the experiment with OVCAR-5 was > 100 µM (inactive) in each case. In addition, the GI50 with SN12C, with NCI/ADR-RES, in the experiment on DU-145, with HOP-62, in the experiment on UACC-257 and in the experiment with HT-29 was > 100 µM (inactive) throughout. The GI50 in the experiment on HL-60 is > 100 µM (inactive).

Consider `O=[N+]([O-])c1ccc2c(c1)Sc1ccccc1N2`, for which the GI50 in the experiment with OVCAR-4 was > 100 µM (inactive); with SNB-19, 78.2 µM (inactive); with NCI-H460, 22.8 µM (inactive); in the experiment on Hs-578T, 17.2 µM (inactive); with OVCAR-8, > 100 µM (inactive); with TK-10 it was > 100 µM (inactive). Also, the GI50 in the experiment on A498 was 14.1 µM (inactive); in the experiment on UO-31, > 100 µM (inactive); with U-251, 67.3 µM (inactive); in the experiment with SF-539, > 100 µM (inactive); in the experiment on OVCAR-5 it was > 100 µM (inactive); in the experiment on SN12C, > 100 µM (inactive). The GI50 with NCI/ADR-RES is 14.4 µM (inactive); with DU-145 it was 74.6 µM (inactive); with HOP-62 it was 34.1 µM (inactive); with UACC-257, > 100 µM (inactive); with HT-29 it was > 100 µM (inactive); with HL-60 it was 5.11 µM (inactive).

Turning to `[N-]=[N+]=Nc1c(C=O)c(=O)n(-c2ccccc2)c2ccccc12`, the GI50 was 16.7 µM (inactive) in the experiment on OVCAR-4; 57 µM (inactive) with SNB-19; 29.6 µM (inactive) with NCI-H460; 25.1 µM (inactive) in the experiment on Hs-578T; 19.5 µM (inactive) in the experiment with TK-10; 0.0778 µM (active) in the experiment with A498. In addition, the GI50 in the experiment with UO-31 is 16.2 µM (inactive); in the experiment on UACC-62, 15 µM (inactive); in the experiment on U-251, 28.6 µM (inactive); in the experiment on SF-539, 73.5 µM (inactive); in the experiment on OVCAR-5, 55.8 µM (inactive); in the experiment on SN12C, 42.3 µM (inactive). Further, the GI50 in the experiment with NCI/ADR-RES was 23.7 µM (inactive); in the experiment on DU-145 it was 25.5 µM (inactive); in the experiment on HOP-62 it was 29.3 µM (inactive); with UACC-257, 22.9 µM (inactive); with HT-29, 23.1 µM (inactive); in the experiment with HL-60 it was 52.4 µM (inactive).
